Reference: the kinase profiling compilation of Christmann-Franck et al. (2016)

How the values were obtained:
Assay in all cases: KINOMEscan competition binding
Conditions in all cases: compound 10.0 µM
NTRK1 (human) = NTRK1 (human) (UniProt P04629)
STK32C (human) = STK32C (human) (UniProt Q86UX6)
SIK3 (human) = SIK3 (human) (UniProt Q9Y2K2)
GRK7 (human) = GRK7 (human) (UniProt Q8WTQ7)
MAP4K3 (human) = MAP4K3 (human) (UniProt Q8IVH8)
SRC (human) = SRC (human) (UniProt P12931)
NEK11 (human) = NEK11 (human) (UniProt Q8NG66)
AAK1 (human) = AAK1 (human) (UniProt Q2M2I8)
ULK3 (human) = ULK3 (human) (UniProt Q6PHR2)
Chain of ULK3 (human) (Q6PHR2 whole entry, looked up): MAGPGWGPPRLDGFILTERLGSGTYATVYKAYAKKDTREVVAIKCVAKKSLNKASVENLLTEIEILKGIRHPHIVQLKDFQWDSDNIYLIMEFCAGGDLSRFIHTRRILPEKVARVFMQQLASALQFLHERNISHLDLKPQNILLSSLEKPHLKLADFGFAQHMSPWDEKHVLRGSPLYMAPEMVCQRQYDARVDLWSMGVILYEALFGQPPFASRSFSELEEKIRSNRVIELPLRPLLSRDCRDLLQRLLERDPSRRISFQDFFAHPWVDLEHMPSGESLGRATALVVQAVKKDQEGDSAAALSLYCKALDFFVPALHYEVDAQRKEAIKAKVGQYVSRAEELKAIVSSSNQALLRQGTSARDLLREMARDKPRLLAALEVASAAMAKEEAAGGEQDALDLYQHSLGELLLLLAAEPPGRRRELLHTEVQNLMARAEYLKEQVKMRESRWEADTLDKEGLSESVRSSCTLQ

NTRK2 (human) = NTRK2 (human) (UniProt Q16620)
SRPK3 (human) = SRPK3 (human) (UniProt Q9UPE1)
Chain of SRPK3 (human) (Q9UPE1 whole entry, looked up): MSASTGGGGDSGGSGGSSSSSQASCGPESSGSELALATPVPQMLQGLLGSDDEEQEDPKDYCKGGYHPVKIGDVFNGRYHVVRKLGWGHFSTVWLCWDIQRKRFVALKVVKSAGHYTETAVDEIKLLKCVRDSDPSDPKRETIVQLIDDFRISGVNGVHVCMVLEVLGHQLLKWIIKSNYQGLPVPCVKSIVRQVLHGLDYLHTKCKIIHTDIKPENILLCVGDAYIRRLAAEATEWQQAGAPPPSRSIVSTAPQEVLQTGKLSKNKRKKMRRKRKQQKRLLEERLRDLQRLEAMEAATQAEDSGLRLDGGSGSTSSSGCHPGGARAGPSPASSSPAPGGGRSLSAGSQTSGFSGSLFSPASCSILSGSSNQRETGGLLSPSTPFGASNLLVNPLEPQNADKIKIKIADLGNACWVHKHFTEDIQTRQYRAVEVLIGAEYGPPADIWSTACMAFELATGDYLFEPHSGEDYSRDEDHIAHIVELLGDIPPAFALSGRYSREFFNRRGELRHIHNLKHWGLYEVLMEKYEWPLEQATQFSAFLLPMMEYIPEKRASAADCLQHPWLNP

EPHA7 (human) = EPHA7 (human) (UniProt Q15375)
YES1 (human) = YES1 (human) (UniProt P07947)
EPHB4 (human) = EPHB4 (human) (UniProt P54760)
STK32B (human) = STK32B (human) (UniProt Q9NY57)
RAF1 (human) = RAF1 (human) (UniProt P04049)
PIK3CG (human) = PIK3CG (human) (UniProt P48736)
[1] = target: TYK2 JH2 pseudokinase (human) (UniProt P29597)
STK32A (human) = STK32A (human) (UniProt Q8WU08)
FGFR4 (human) = FGFR4 (human) (UniProt P22455)
HIPK3 (human) = HIPK3 (human) (UniProt Q9H422)
MARK1 (human) = MARK1 (human) (UniProt Q9P0L2)
MAP3K9 (human) = MAP3K9 (human) (UniProt P80192)
STK4 (human) = STK4 (human) (UniProt Q13043)
GSK3A (human) = GSK3A (human) (UniProt P49840)
PLK4 (human) = PLK4 (human) (UniProt O00444)
ROCK1 (human) = ROCK1 (human) (UniProt Q13464)
Chain of ROCK1 (human) (Q13464 whole entry, looked up): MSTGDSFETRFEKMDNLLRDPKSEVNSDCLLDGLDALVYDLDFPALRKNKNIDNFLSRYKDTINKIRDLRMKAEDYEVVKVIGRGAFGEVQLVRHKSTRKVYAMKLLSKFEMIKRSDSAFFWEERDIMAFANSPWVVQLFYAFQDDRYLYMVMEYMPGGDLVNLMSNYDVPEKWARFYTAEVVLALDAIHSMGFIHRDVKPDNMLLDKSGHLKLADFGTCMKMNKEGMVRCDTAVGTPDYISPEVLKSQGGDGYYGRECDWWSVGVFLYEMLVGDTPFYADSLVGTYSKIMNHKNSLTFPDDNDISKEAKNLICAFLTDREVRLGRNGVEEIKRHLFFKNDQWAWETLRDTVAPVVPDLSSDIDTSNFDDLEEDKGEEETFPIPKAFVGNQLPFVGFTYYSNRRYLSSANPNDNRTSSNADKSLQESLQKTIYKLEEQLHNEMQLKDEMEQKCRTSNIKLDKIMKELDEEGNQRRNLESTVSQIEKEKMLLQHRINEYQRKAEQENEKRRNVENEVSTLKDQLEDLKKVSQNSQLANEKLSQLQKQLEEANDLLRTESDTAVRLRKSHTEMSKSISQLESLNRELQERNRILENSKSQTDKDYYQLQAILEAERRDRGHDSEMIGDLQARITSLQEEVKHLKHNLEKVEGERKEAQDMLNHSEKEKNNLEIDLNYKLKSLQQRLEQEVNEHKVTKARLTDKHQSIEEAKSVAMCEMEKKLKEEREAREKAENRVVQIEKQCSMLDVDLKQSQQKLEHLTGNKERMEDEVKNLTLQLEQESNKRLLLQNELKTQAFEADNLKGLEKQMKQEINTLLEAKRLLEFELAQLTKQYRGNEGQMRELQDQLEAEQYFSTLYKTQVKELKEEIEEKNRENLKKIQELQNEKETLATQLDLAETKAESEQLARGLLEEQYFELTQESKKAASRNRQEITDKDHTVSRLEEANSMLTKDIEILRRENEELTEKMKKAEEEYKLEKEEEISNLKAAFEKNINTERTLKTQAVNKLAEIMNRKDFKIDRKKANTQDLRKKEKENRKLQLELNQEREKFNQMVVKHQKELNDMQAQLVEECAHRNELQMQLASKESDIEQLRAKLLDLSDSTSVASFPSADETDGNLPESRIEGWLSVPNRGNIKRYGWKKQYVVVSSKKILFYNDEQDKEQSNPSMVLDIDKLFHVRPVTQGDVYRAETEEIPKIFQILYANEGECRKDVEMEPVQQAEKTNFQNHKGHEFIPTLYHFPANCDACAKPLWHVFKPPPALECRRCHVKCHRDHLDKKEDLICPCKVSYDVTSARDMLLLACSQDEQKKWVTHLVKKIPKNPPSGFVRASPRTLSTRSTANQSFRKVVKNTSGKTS

PKN3 (M.tuberculosis) = PKN3 (M.tuberculosis) (UniProt Q6P5Z2)
CLK4 (human) = CLK4 (human) (UniProt Q9HAZ1)
Chain of CLK4 (human) (Q9HAZ1 whole entry, looked up): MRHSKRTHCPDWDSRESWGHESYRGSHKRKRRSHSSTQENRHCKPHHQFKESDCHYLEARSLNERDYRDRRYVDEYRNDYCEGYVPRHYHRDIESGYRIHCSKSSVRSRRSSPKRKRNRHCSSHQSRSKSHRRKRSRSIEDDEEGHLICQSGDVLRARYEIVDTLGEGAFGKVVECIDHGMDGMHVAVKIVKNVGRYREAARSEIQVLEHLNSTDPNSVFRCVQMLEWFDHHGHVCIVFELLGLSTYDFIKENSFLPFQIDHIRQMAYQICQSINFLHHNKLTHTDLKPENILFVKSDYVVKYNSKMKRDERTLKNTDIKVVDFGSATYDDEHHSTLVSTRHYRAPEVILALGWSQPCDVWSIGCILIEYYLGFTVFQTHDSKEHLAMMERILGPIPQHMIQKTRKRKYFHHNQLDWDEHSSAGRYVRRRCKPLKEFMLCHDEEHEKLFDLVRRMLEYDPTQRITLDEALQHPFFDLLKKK

NLK (human) = NLK (human) (UniProt Q9UBE8)
NUAK2 (human) = NUAK2 (human) (UniProt Q9H093)
RPS6KA2 KD2 (human) = RPS6KA2 KD2 (human) (UniProt Q15349)
PKN1 (human) = PKN1 (human) (UniProt Q16512)
Chain of PKN1 (human) (Q16512 whole entry, looked up): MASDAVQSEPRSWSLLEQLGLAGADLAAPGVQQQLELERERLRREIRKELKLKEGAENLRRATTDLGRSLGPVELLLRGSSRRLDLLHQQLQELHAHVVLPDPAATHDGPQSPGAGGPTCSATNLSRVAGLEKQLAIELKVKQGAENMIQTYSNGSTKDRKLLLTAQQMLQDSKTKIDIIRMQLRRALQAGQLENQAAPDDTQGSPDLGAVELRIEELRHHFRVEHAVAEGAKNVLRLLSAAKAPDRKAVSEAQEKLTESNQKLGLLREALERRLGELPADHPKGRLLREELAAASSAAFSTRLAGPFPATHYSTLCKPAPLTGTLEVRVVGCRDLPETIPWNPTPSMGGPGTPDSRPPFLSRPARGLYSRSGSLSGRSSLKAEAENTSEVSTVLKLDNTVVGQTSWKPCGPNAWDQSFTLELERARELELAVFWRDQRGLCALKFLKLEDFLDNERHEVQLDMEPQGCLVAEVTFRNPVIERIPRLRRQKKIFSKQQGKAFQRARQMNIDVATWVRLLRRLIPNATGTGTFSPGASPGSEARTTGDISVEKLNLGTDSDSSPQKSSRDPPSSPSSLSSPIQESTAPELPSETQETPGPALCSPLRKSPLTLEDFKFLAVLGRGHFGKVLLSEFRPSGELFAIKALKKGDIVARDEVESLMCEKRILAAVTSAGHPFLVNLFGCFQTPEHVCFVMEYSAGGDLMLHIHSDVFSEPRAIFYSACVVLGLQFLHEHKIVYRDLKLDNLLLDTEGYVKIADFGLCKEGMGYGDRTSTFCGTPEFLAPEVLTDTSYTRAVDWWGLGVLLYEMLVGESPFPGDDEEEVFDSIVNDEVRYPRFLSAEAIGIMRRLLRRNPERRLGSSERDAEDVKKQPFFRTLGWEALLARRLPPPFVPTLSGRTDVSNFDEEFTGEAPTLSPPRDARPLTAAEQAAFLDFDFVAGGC

ABL2 (human) = ABL2 (human) (UniProt P42684)
Chain of ABL2 (human) (P42684 whole entry, looked up): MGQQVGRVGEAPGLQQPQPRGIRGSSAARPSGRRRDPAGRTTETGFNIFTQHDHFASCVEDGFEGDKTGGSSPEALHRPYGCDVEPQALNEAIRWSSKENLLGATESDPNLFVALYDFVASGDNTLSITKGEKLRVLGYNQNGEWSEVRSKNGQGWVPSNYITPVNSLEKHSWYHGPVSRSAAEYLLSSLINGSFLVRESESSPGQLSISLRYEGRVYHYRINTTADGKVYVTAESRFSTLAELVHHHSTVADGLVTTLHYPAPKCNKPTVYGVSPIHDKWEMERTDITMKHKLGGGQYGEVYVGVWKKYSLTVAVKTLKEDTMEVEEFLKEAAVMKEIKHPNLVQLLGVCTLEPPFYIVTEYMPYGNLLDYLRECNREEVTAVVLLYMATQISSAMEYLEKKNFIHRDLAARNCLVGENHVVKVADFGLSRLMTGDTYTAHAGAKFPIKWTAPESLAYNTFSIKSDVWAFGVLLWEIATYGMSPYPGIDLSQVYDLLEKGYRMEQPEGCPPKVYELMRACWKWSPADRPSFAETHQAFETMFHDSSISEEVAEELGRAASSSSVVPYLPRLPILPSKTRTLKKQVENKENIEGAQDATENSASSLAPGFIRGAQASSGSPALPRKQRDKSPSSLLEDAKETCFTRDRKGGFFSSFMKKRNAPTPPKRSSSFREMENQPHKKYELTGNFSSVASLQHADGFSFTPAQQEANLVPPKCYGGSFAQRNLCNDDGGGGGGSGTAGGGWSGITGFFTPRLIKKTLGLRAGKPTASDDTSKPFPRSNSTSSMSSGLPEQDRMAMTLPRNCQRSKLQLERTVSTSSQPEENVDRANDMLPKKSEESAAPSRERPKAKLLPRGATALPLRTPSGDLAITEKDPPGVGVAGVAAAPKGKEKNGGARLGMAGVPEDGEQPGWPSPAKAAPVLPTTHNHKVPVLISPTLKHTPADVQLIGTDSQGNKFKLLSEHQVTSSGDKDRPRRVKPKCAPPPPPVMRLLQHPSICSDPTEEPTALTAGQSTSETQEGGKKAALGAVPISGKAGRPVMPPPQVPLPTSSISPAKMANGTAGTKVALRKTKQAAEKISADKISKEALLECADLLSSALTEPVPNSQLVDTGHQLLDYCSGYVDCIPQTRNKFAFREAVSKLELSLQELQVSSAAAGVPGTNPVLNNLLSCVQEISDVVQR

PTK2 (human) = PTK2 (human) (UniProt Q05397)
AKT3 (human) = AKT3 (human) (UniProt Q9Y243)
PIK3C2G (human) = PIK3C2G (human) (UniProt O75747)
CAMK2D (human) = CAMK2D (human) (UniProt Q13557)
PTK2B (human) = PTK2B (human) (UniProt Q14289)
BTK (human) = BTK (human) (UniProt Q06187)

Structure (SMILES)	kinase still bound, per cent of control (NTRK1 (human)) [%]	kinase still bound, per cent of control (STK32C (human)) [%]	kinase still bound, per cent of control (SIK3 (human)) [%]	kinase still bound, per cent of control (GRK7 (human)) [%]	kinase still bound, per cent of control (MAP4K3 (human)) [%]	kinase still bound, per cent of control (SRC (human)) [%]	kinase still bound, per cent of control (NEK11 (human)) [%]	kinase still bound, per cent of control (AAK1 (human)) [%]	kinase still bound, per cent of control (ULK3 (human)) [%]	kinase still bound, per cent of control (NTRK2 (human)) [%]	kinase still bound, per cent of control (SRPK3 (human)) [%]	kinase still bound, per cent of control (YES1 (human)) [%]	kinase still bound, per cent of control (EPHB4 (human)) [%]	kinase still bound, per cent of control (PIK3CG (human)) [%]	kinase still bound, per cent of control (STK32A (human)) [%]	kinase still bound, per cent of control (HIPK3 (human)) [%]	kinase still bound, per cent of control (MARK1 (human)) [%]	kinase still bound, per cent of control (MAP3K9 (human)) [%]	kinase still bound, per cent of control (STK4 (human)) [%]	kinase still bound, per cent of control (GSK3A (human)) [%]	other results
CCc1nc(-c2cccc(C)c2)c(-c2ccnc(NC(=O)c3ccccc3)c2)s1	100	35	94	100	80	14	100	96	88	100	100	5.6	53	100	9	100	100	94	74	100	kinase still bound, per cent of control (EPHA7 (human)): 92%; kinase still bound, per cent of control (STK32B (human)): 7%; kinase still bound, per cent of control (RAF1 (human)): 34%; kinase still bound, per cent of control [1]: 57%; kinase still bound, per cent of control (FGFR4 (human)): 100%; kinase still bound, per cent of control (PLK4 (human)): 100%; kinase still bound, per cent of control (ROCK1 (human)): 97%; kinase still bound, per cent of control (PKN3 (M.tuberculosis)): 100%; kinase still bound, per cent of control (CLK4 (human)): 93%; kinase still bound, per cent of control (NLK (human)): 4%; kinase still bound, per cent of control (NUAK2 (human)): 100%; kinase still bound, per cent of control (RPS6KA2 KD2 (human)): 86%; kinase still bound, per cent of control (PKN1 (human)): 98%; kinase still bound, per cent of control (ABL2 (human)): 47%; kinase still bound, per cent of control (PTK2 (human)): 96%; kinase still bound, per cent of control (AKT3 (human)): 95%; kinase still bound, per cent of control (PIK3C2G (human)): 40%; kinase still bound, per cent of control (CAMK2D (human)): 100%
CC(=O)c1c(C)c2cnc(Nc3ccc(N4CCNCC4)cn3)nc2n(C2CCCC2)c1=O	6.5	94	100	13	20	93	31	11	40	12	23	83	100	6.8	87	2.1	35	78	74	50	kinase still bound, per cent of control (PTK2B (human)): 31%; kinase still bound, per cent of control (PLK4 (human)): 3.2%; kinase still bound, per cent of control (ROCK1 (human)): 30%; kinase still bound, per cent of control (PKN3 (M.tuberculosis)): 1%; kinase still bound, per cent of control (CLK4 (human)): 2%; kinase still bound, per cent of control (NUAK2 (human)): 1%; kinase still bound, per cent of control (RPS6KA2 KD2 (human)): 26%; kinase still bound, per cent of control (PKN1 (human)): 66%; kinase still bound, per cent of control (ABL2 (human)): 97%; kinase still bound, per cent of control (PTK2 (human)): 61%; kinase still bound, per cent of control (PIK3C2G (human)): 20%; kinase still bound, per cent of control (CAMK2D (human)): 6.8%; kinase still bound, per cent of control (BTK (human)): 13%
COc1cc2ncnc(Nc3cccc(Cl)c3)c2cc1OC	88	100	53	75	100	9.9	99	18	24	80	93	38	38	44	63	54	100	86	100	84	kinase still bound, per cent of control (EPHA7 (human)): 46%; kinase still bound, per cent of control (STK32B (human)): 100%; kinase still bound, per cent of control (RAF1 (human)): 84%; kinase still bound, per cent of control [1]: 55%; kinase still bound, per cent of control (PTK2B (human)): 86%; kinase still bound, per cent of control (FGFR4 (human)): 98%; kinase still bound, per cent of control (PLK4 (human)): 30%; kinase still bound, per cent of control (ROCK1 (human)): 41%; kinase still bound, per cent of control (PKN3 (M.tuberculosis)): 100%; kinase still bound, per cent of control (CLK4 (human)): 37%; kinase still bound, per cent of control (NLK (human)): 43%; kinase still bound, per cent of control (NUAK2 (human)): 49%; kinase still bound, per cent of control (RPS6KA2 KD2 (human)): 90%; kinase still bound, per cent of control (PKN1 (human)): 94%; kinase still bound, per cent of control (ABL2 (human)): 34%; kinase still bound, per cent of control (PTK2 (human)): 100%; kinase still bound, per cent of control (PIK3C2G (human)): 43%; kinase still bound, per cent of control (CAMK2D (human)): 61%; kinase still bound, per cent of control (BTK (human)): 70%
